One block for each molecule: values may come before it. Calls of active or inactive are those of the source.
Tests used:
[1] = CRF-BP/CRF-R2 complex antagonists, dose response, cell-based, uHTS hits, 384-well (AID 651639); format: functional, Homo sapiens; conditions: read-out: IC50_Mean
Aminopeptidase N = biological target: T1, Aminopeptidase N (Plasmodium falciparum FcB1/Columbia, UniProt O96935); experiment: P. falciparum M1AAP inhibitors, biochemical, fluorogenic H-Leu-NHMec substrate, 1536-well (AID 1445); parameters: species or system Plasmodium falciparum 3D7, 3D7
T1 sequence (O96935 whole entry): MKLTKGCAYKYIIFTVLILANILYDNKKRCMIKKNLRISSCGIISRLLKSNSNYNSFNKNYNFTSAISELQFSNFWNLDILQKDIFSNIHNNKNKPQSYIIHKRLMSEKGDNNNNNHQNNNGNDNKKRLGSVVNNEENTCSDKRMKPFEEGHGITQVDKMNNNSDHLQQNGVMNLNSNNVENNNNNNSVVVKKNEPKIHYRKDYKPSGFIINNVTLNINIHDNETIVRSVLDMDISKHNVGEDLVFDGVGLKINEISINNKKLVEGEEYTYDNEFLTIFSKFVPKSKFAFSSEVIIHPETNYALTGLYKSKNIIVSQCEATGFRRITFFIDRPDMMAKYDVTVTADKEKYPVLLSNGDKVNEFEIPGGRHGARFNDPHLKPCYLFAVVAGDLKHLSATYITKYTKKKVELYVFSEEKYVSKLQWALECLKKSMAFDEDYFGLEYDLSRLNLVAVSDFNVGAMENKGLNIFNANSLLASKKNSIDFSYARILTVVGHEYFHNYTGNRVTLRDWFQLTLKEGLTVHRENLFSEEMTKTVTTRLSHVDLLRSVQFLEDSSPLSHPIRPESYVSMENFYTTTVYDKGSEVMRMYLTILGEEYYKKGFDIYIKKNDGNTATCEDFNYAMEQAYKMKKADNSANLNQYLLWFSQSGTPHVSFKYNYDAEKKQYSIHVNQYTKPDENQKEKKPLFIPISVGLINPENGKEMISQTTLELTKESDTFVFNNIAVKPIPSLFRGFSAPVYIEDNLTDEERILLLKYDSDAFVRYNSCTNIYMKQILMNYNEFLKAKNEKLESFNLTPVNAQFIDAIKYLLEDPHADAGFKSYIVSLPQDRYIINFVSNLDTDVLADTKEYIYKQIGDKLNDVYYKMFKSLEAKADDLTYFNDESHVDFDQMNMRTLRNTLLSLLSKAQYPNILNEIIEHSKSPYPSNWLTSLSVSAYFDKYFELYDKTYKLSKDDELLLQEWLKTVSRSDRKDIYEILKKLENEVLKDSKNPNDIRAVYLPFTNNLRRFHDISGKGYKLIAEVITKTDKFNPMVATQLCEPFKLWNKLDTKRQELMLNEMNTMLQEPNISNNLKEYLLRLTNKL

[2] = biological target: T2, Corticotropin-releasing factor receptor 2/Corticotropin-releasing factor-binding protein (Homo sapiens, UniProt P24387+Q13324); experiment: Dose Response confirmation of uHTS hits for small molecule antagonists of the CRF-binding protein and CRF-R2 receptor complex.; format: functional; conditions: read-out: IC50_Mean
T2 sequence (Q13324 whole entry): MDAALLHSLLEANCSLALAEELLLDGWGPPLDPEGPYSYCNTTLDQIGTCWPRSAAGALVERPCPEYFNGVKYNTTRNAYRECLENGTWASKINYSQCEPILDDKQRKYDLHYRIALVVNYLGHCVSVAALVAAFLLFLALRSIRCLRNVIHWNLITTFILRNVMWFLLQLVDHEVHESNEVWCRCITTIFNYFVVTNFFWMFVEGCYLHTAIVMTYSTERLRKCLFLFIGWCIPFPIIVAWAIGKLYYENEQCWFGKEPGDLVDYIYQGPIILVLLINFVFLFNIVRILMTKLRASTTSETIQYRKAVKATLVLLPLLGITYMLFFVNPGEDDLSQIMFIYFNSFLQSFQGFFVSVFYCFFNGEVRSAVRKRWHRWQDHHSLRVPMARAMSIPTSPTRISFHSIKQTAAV
T2 sequence (P24387 whole entry): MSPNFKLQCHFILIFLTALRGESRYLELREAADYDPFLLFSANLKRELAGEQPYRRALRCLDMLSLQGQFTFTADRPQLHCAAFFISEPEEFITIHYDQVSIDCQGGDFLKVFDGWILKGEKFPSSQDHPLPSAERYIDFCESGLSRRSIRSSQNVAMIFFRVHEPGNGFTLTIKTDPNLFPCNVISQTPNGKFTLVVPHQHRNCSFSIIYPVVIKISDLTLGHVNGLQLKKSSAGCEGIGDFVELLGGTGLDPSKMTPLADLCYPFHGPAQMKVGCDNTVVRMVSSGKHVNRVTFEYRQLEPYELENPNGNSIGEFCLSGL

Vero = Vero cell cytotoxicity, cytotoxicity control for flavivirus capping enzyme inhibitors (AID 588742); format: functional; conditions: Chlorocebus sabaeus
[3] = biological target: T3, Short transient receptor potential channel 4 (Mus musculus, UniProt Q9QUQ5); experiment: mouse TRPC4 channel inhibitors, dose response, cell-based, HEK293 TRPC4/mu-opioid, Fluo-4 calcium (AID 434942); format: functional;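 also: potency of inhibitors blocking the TRPC4 calcium response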
T3 sequence (Q9QUQ5 whole entry): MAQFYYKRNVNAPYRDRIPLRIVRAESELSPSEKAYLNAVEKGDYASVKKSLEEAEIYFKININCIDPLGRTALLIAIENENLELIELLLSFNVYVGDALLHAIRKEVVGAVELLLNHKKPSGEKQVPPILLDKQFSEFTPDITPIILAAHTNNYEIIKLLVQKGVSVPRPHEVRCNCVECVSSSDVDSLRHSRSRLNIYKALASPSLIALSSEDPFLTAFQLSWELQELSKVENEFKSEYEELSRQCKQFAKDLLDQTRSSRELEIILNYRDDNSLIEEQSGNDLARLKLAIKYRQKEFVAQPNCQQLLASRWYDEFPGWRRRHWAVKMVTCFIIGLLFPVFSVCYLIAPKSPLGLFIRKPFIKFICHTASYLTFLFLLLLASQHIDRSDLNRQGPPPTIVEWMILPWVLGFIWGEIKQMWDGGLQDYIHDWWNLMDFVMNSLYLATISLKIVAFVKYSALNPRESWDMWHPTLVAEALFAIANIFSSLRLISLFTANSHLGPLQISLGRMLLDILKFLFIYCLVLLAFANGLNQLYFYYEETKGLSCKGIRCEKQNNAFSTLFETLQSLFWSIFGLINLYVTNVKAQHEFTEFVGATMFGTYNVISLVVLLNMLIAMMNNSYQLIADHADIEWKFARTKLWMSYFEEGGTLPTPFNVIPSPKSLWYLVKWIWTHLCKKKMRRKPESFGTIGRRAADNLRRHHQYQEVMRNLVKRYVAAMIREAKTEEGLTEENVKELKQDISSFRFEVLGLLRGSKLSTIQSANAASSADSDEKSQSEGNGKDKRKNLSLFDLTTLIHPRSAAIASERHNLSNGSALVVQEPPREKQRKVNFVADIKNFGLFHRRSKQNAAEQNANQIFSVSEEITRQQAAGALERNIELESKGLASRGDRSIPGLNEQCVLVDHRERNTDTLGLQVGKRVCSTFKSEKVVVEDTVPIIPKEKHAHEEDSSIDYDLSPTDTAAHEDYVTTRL

[4] = biological target: T2, Corticotropin-releasing factor receptor 2/Corticotropin-releasing factor-binding protein; experiment: activators of CRF receptor 2 with binding protein – uHTS hits, confirmation (AID 602473); format: functional; conditions: read-out: EC50_Mean
Genome polyprotein = Genome polyprotein (dengue virus type 2, UniProt P29990); experiment: Dengue-2 NS5 methyltransferase inhibitors, primary screen, biochemical, confirmation dose response (AID 588689); format: functional
Genome polyprotein, sequence (P29990 2492-3391 limits assumed): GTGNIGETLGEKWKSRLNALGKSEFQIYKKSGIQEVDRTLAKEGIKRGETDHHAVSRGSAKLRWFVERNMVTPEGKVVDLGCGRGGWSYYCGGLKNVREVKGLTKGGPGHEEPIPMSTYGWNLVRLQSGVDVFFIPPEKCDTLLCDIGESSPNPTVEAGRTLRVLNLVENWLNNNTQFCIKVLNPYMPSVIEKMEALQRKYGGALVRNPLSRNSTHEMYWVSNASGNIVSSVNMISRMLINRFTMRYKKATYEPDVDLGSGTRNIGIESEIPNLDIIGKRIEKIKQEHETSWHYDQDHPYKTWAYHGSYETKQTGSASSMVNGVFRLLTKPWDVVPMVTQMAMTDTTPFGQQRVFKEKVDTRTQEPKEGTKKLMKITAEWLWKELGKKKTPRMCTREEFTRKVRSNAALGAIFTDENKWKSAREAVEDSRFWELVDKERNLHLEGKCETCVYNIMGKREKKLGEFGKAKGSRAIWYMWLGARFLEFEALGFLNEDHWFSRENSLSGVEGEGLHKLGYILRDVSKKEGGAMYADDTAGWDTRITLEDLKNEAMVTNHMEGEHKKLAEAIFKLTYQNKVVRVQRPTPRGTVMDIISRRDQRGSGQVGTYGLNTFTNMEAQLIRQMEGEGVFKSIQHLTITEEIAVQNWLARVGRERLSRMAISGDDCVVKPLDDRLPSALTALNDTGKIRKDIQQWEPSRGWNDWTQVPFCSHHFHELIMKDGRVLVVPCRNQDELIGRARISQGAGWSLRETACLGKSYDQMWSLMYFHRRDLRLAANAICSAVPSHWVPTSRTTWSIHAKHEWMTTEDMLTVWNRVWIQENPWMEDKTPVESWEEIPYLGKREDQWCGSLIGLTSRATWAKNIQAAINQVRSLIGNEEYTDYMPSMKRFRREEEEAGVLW

Protein Tat = biological target: T4, Protein Tat (Human immunodeficiency virus type 1 group M subtype B (isolate HXB2)(HIV-1), UniProt P04608); format: functional;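 also: tat binding to TAR RNA read out by fluorescence polarization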
T4 sequence (P04608 whole entry): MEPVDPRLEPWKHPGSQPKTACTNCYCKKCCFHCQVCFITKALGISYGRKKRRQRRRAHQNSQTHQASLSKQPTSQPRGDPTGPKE

[5] = biological target: Potassium channel subfamily K member 9 (Homo sapiens, UniProt Q9NPC2); experiment: TASK3 (KCNK9) channel inhibitors, thallium flux, SAR follow-up, selectivity assay for TASK1 inhibitor project, cell-based, FluxOR thallium flux, concentration-response (AID 652211); format: functional;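 also: potency is for inhibitors of the channel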
Potassium channel subfamily K member 9, sequence (Q9NPC2 whole entry): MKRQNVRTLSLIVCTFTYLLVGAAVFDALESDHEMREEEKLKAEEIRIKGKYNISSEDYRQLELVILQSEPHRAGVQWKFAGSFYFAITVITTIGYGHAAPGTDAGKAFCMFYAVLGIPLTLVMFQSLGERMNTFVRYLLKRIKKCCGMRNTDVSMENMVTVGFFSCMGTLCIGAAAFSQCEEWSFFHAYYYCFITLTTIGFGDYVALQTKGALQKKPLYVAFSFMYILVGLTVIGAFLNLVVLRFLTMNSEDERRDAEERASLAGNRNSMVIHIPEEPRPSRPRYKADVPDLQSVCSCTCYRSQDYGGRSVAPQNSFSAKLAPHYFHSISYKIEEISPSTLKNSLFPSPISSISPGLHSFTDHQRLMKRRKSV

[6] = biological target: T5, ATP-dependent translocase ABCB1 (Homo sapiens, UniProt P08183); experiment: ABCG2 efflux pump inhibitor potency, dose response, Ig-MXP3 cells, JC-1, flow cytometry, set 2 (AID 504566); format: functional; conditions: read-out: EC50_MICROM_;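 also: flow cytometry median green fluorescence of retained JC-1 dye; potency of efflux pump inhibition measured as rising substrate retention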
T5 sequence (P08183 whole entry): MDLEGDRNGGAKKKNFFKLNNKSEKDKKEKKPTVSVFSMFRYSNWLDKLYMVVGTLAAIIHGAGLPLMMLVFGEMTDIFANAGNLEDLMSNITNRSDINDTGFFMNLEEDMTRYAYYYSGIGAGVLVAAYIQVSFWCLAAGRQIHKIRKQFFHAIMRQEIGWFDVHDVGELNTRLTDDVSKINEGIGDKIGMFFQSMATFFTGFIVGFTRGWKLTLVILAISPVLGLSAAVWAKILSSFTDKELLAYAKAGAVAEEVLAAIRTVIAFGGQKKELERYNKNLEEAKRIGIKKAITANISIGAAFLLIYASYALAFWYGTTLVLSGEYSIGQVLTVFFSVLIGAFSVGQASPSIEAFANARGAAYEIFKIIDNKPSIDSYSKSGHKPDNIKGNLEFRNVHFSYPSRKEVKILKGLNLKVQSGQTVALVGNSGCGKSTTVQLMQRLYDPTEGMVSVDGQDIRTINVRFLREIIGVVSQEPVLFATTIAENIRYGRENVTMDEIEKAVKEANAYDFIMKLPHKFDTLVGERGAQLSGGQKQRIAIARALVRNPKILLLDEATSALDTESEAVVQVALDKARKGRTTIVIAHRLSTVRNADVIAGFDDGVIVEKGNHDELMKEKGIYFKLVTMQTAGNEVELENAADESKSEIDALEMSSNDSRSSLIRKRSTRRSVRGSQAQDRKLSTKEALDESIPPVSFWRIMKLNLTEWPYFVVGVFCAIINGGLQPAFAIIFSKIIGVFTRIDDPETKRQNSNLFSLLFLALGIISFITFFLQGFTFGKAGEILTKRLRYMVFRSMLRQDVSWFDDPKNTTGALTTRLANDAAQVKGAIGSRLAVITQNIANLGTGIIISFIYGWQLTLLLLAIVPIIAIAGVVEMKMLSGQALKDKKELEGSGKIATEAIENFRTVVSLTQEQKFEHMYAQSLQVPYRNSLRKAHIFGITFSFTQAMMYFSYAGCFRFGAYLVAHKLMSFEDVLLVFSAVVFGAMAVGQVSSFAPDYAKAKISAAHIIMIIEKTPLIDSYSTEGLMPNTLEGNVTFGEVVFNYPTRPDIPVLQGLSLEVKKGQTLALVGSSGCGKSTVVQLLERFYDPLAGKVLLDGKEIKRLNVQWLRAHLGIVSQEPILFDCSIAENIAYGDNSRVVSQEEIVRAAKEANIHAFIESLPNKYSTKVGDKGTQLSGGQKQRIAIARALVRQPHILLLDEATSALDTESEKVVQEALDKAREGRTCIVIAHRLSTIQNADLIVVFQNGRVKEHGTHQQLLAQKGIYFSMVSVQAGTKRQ

[7] = biological target: T5, ATP-dependent translocase ABCB1; experiment: ABCB1 efflux inhibitor potency, dose response, Jurkat-DNR cells, JC-1, flow cytometry, set 2 (AID 504569); format: functional; conditions: read-out: EC50_MICROM_;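 also: potency of pump inhibitors that raise cellular JC-1 green fluorescence up to the nicardipine level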

Structure (SMILES): O=C(Nc1cccc(NC(=O)c2ccccc2C(F)(F)F)c1)c1ccccc1
IC50 [5]: 7.21 µM (active)

Structure (SMILES): COc1ccc(-c2cc3nc(C)c(C)c(N4CCN(C(=O)c5ccsc5)CC4)n3n2)cc1
EC50 [6]: 1.79 µM (active) | EC50 [7]: 3.83 µM (active)

Structure (SMILES): Cc1nc2cc(-c3cccc(Cl)c3)nn2c(N2CCN(C(=O)c3ccco3)CC2)c1C
EC50 [6]: 3.41 µM (active) | EC50 [7]: 7.87 µM (active)

Structure (SMILES): COc1ccccc1C(=O)Nc1cccc(NC(=O)c2ccccc2C)c1
IC50 [5]: 3.49 µM (active)

Second part, led by results:

IC50 [1]: 10.4 µM (active) | IC50 (Aminopeptidase N): 33.1 µM (active) | IC50 [2]: 12.6 µM (active) | EC50 [3]: 6.68 µM (active) | EC50 [4]: > 53 µM (inactive) | IC50 (Genome polyprotein): 37.4 µM (active)
Structure (SMILES): COc1cc(/C=C2\SC(=S)N(NS(=O)(=O)c3ccc(C)cc3)C2=O)cc(OC)c1OC
CC50 (Vero): > 40 µM (active)

IC50 (Protein Tat): > 100 µM (active)
Structure (SMILES): O=c1cc(O)n(-c2ccc(F)cc2)c(=S)[nH]1

Reference: ChEMBL document CHEMBL1201862, “PubChem BioAssay data set” (2004)
